These results are taken from article PMC7412250, “Novel Chrysin-De-Allyl PAC-1 Hybrid Analogues as Anticancer Compounds: Design, Synthesis, and Biological Evaluation” (Molecules, 2020).

Read-outs that look alike come from different tables or passages of the source.

For data set [1], the system named is MDA-MB-231 cells. The data set is described as follows: MTT cytotoxicity assay, MDA-MB-231. The format is cell-based, human. Particulars: MDA-MB-231, MTT; for IC50: Homo sapiens, mean ± SD of two independent experiments in triplicate, read-out: IC50 (cell survival). As for the experimental part: The synthesized chrysin derivatives were evaluated for cytotoxic efficacy in the human breast cancer cell line, MDA-MB-231, using the 3-(4,5-dimethylthiazol-2yl)-2,5-diphenyltetrazolium bromide (MTT) colorimetric assay and doxorubicin was used as a reference anticancer drug.
(§1) A panel of cancer cell lines, including breast (MDA-MB-231, BT20), brain (U251), and colon (HCT116), as well as a normal cell line (human mammary epithelial cells: HMECs), were grown as adherent monolayers in flasks with Dulbecco’s Modified Eagle Medium (DMEM), supplemented with 10% fetal bovine serum (FBS) and 1% penicillin and streptomycin in a humidified incubator with 5% CO2 at 37 °C.
The (3-(4,5-dimethylthiazol-2-yl)-2,5-diphenyltetrazolium bromide) (MTT) assay was used to determine the cytotoxicity of the 15 chrysin derivatives in the above-mentioned cell lines. Briefly, cells were harvested with 0.05% trypsin, 2.21 mM ethylenediaminetetraacetic acid (EDTA), 1× from Corning (Corning, NY, USA), and suspended at a final density of 5 × 10^3 cells/well. Cells were seeded (180 μL/well) into 96-well plates. Initially, four different concentrations of each compound were added to find the compounds with the greatest antiproliferative efficacy in the MDA-MB-231 cell line (0, 1, 10, and 100 μM). Subsequently, […] different concentrations […] of each compound were added to the remaining cell lines mentioned above. After 68 h of incubation, 20 μL of the MTT solution (4 mg/mL) were added to each well, and the plates were incubated for 4 h. This allowed viable cells to biotransform the yellow-colored MTT into dark-blue formazan crystals. Subsequently, the medium was discarded, and 150 μL of DMSO were added to each well to dissolve the formazan crystals. The absorbance was determined at 590 nm using a DTX 880 multimode detector (Beckman Coulter life sciences, IN, USA). […] The IC50 values were calculated from the cell survival percentages obtained for each compound tested at different concentrations. Similarly, the cytotoxicity of the test compounds was compared to the normal cell line (HMEC).

Another data set deals with HCT116. The experiment in a line: MTT cytotoxicity assay, HCT116. The data set is classed as cell-based. Particulars: Homo sapiens, HCT-116, mean ± SEM of three independent experiments in triplicate, read-out: IC50 Colon Cancer HCT116. On the procedure: as §1
(§2) The (3-(4,5-dimethylthiazol-2-yl)-2,5-diphenyltetrazolium bromide) (MTT) assay was used to determine the cytotoxicity of the 15 chrysin derivatives in the above-mentioned cell lines. Briefly, cells were harvested with 0.05% trypsin, 2.21 mM ethylenediaminetetraacetic acid (EDTA), 1× from Corning (Corning, NY, USA), and suspended at a final density of 5 × 10^3 cells/well. Cells were seeded (180 μL/well) into 96-well plates. Initially, four different concentrations of each compound were added to find the compounds with the greatest antiproliferative efficacy in the MDA-MB-231 cell line (0, 1, 10, and 100 μM). Subsequently, […] different concentrations […] of each compound were added to the remaining cell lines mentioned above. After 68 h of incubation, 20 μL of the MTT solution (4 mg/mL) were added to each well, and the plates were incubated for 4 h. This allowed viable cells to biotransform the yellow-colored MTT into dark-blue formazan crystals. Subsequently, the medium was discarded, and 150 μL of DMSO were added to each well to dissolve the formazan crystals. The absorbance was determined at 590 nm using a DTX 880 multimode detector (Beckman Coulter life sciences, IN, USA). The IC50 ± SD concentrations were calculated from three experiments performed in triplicate/duplicate. The IC50 values were calculated from the cell survival percentages obtained for each compound tested at different concentrations. Similarly, the cytotoxicity of the test compounds was compared to the normal cell line (HMEC).
A general note: Formazan colour is commonly taken as a measure of viable cells.

The test system of another data set is BT-20. The experiment in a line: MTT cytotoxicity assay, BT-20. The data set is classed as cell-based. Conditions: Homo sapiens, mean ± SEM of three independent experiments in triplicate, read-out: IC50 Breast Cancer BT-20. On the procedure:
as §1, §2

Another data set deals with U-251. The experiment in a line: MTT cytotoxicity assay, U-251. The data set is classed as cell-based. Particulars: Homo sapiens, mean ± SEM of three independent experiments in triplicate, read-out: IC50 Brain Cancer U-251. On the procedure: as §1, §2
The test system of data set [2] is HMEC (human mammary epithelial cells). The experiment in a line: MTT cytotoxicity assay, normal cells HMEC. The data set is classed as cell-based. Conditions: mean ± SEM of three independent experiments in triplicate. As for the experimental part:
as §1, §2

Data set [3] relates to MDA-MB-231 cells. The arrangement: method as in PMID 30774307. Particulars: cited from earlier work; for IC50: MDA-MB-231, MTT, data taken from ref 29, read-out: IC50 (cell survival).

One may read the IC50 as the concentration that gives 50% inhibition. Consider `O=C(COc1cc(O)c2c(=O)cc(-c3ccccc3)oc2c1)N/N=C/c1ccccc1O` [Compound 4a, (E,Z)-2-((5-Hydroxy-4-oxo-2-phenyl-4H-chromen-7-yl)oxy)-N’-(2-hydroxybenzylidene)acetohydrazide], for which the IC50 turned out to be 6.8 ± 2.76 µM in the data set on MDA-MB-231 cells [1]; 2.88 ± 0.09 µM with HCT116; 4.41 ± 0.99 µM in the data set with BT-20; 8.63 ± 4.86 µM with U-251; 7.12 ± 4.55 µM in data set [2].
On to `O=C(COc1cc(O)c2c(=O)cc(-c3ccccc3)oc2c1)N/N=C/c1ccccc1` [Compound 4b, (E,Z)-N’-Benzylidene-2-((5-hydroxy-4-oxo-2-phenyl-4H-chromen-7-yl)oxy)acetohydrazide], for which the concentration for half-maximal inhibition (IC50) in the data set with MDA-MB-231 cells [1] was found to be 9.4 ± 3.38 µM.
Regarding `COc1ccccc1/C=N/NC(=O)COc1cc(O)c2c(=O)cc(-c3ccccc3)oc2c1` [Compound 4c, (E,Z)-2-((5-Hydroxy-4-oxo-2-phenyl-4H-chromen-7-yl)oxy)-N’-(2-methoxybenzylidene)acetohydrazide], in the data set on MDA-MB-231 cells [1], the half-maximal inhibitory concentration (IC50) is 23.3 ± 6.98 µM.
For the molecule `O=C(COc1cc(O)c2c(=O)cc(-c3ccccc3)oc2c1)N/N=C/c1ccc(O)cc1` [Compound 4e, (E,Z)-2-((5-Hydroxy-4-oxo-2-phenyl-4H-chromen-7-yl)oxy)-N’-(4-hydroxybenzylidene)acetohydrazide], the IC50 in the data set on MDA-MB-231 cells [3] is 54.8 ± 5.7 µM.
Consider `COc1ccc(/C=N/NC(=O)COc2cc(O)c3c(=O)cc(-c4ccccc4)oc3c2)cc1` [Compound 4f, (E,Z)-2-((5-Hydroxy-4-oxo-2-phenyl-4H-chromen-7-yl)oxy)-N’-(4-methoxybenzylidene)acetohydrazide], for which the IC50 with MDA-MB-231 cells [3] was 11.9 ± 3.5 µM. The “times more efficacious than 4e” value in the data set with MDA-MB-231 cells [3] (MDA-MB-231 cytotoxic efficacy relative to 4e) is ~ 5 times.
For the molecule `O=C(COc1cc(O)c2c(=O)cc(-c3ccccc3)oc2c1)N/N=C/c1c(O)cc(O)cc1O` [Compound 4j, (E,Z)-2-((5-Hydroxy-4-oxo-2-phenyl-4H-chromen-7-yl)oxy)-N’-(2,4,6-trihydroxybenzylidene)acetohydrazide], the “cytotoxic efficacy (in words)” value in the data set with MDA-MB-231 cells [1] was “totally inactive”.
`O=C(COc1cc(O)c2c(=O)cc(-c3ccccc3)oc2c1)N/N=C/c1ccco1` [Compound 4k, (E,Z)-N’-(Furan-2-ylmethylene)-2-((5-hydroxy-4-oxo-2-phenyl-4H-chromen-7-yl)oxy)acetohydrazide]: in the data set with MDA-MB-231 cells [1], the half-maximal inhibitory concentration (IC50) stood at 66.7 ± 11.1 µM and the “cytotoxic efficacy (in words)” value was “did not have significant cytotoxic efficacy”.
For `O=C(COc1cc(O)c2c(=O)cc(-c3ccccc3)oc2c1)N/N=C/c1cccnc1` [Compound 4l, (E,Z)-2-((5-Hydroxy-4-oxo-2-phenyl-4H-chromen-7-yl)oxy)-N’-(pyridin-3-ylmethylene)acetohydrazide], the “cytotoxic efficacy (in words)” value in the data set with MDA-MB-231 cells [1] is “did not have significant cytotoxic efficacy”.
With `O=C(COc1cc(O)c2c(=O)cc(-c3ccccc3)oc2c1)N/N=C/c1ccccn1` [Compound 4m, (E,Z)-2-((5-Hydroxy-4-oxo-2-phenyl-4H-chromen-7-yl)oxy)-N’-(pyridin-2-ylmethylene)acetohydrazide], the “cytotoxic efficacy (in words)” value with MDA-MB-231 cells [1] is reported as “did not have significant cytotoxic efficacy”.
Take `O=C(COc1cc(O)c2c(=O)cc(-c3ccccc3)oc2c1)N/N=C/c1c(O)ccc2ccccc12` [Compound 4n, (E,Z)-2-((5-Hydroxy-4-oxo-2-phenyl-4H-chromen-7-yl)oxy)-N’-((2-hydroxynaphthalen-1-yl)methylene)acetohydrazide]: the “cytotoxic efficacy (in words)” value with MDA-MB-231 cells [1] is “inactive”.
Consider `O=C(COc1cc(O)c2c(=O)cc(-c3ccccc3)oc2c1)N/N=C/c1cc([N+](=O)[O-])ccc1O` [Compound 4o], for which the IC50 is 7.9 ± 1.82 µM in the data set on MDA-MB-231 cells [1]; 3.85 ± 0.34 µM with HCT116; 7.25 ± 1.82 µM with BT-20; 11.3 ± 2.84 µM with U-251; 7.17 ± 4.1 µM in data set [2].
Take `COc1cccc2c1C(=O)c1c(O)c3c(c(O)c1C2=O)C[C@@](O)(C(=O)CO)C[C@@H]3O[C@H]1C[C@H](N)[C@H](O)[C@H](C)O1` [Doxorubicin, reference compound]: in the data set on MDA-MB-231 cells [1], the half-maximal inhibitory concentration (IC50) came to 0.2 ± 0.1 µM.
